Laboratory results taken from PubChem BioAssay (NCI).
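Protocol summary: plate cells (96-well), add compound at 5 concentrations, incubate 48 h, interpolate endpoints linearly. GI50: concentration for 50% inhibition of growth. Definition used: TGI = concentration required for complete inhibition of growth.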

Experiments:
Experiment in all cases: growth of human tumour cells (NCI), 48 h
UACC-62 melanoma = tested on: UACC-62 melanoma
SW-620 colon = tested on: SW-620 colon
U251 CNS = tested on: U251 CNS
M14 melanoma = tested on: M14 melanoma
KM12 colon = tested on: KM12 colon
MOLT-4 leukemia = tested on: MOLT-4 leukemia
A498 renal = tested on: A498 renal
MDA-MB-231 breast = tested on: MDA-MB-231 breast
NCI-H522 lung = tested on: NCI-H522 lung
IGROV1 ovarian = tested on: IGROV1 ovarian

| Compound | TGI (UACC-62 melanoma) [µM] | TGI (SW-620 colon) [µM] | TGI (U251 CNS) [µM] | TGI (M14 melanoma) [µM] | TGI (KM12 colon) [µM] | TGI (MOLT-4 leukemia) [µM] | TGI (A498 renal) [µM] | TGI (MDA-MB-231 breast) [µM] | TGI (NCI-H522 lung) [µM] | TGI (IGROV1 ovarian) [µM] | GI50 (UACC-62 melanoma) [µM] | GI50 (SW-620 colon) [µM] | GI50 (U251 CNS) [µM] | GI50 (KM12 colon) [µM] | GI50 (MOLT-4 leukemia) [µM] | GI50 (A498 renal) [µM] | GI50 (NCI-H522 lung) [µM] | GI50 (IGROV1 ovarian) [µM] |
| --- | --- | --- | --- | --- | --- | --- | --- | --- | --- | --- | --- | --- | --- | --- | --- | --- | --- | --- |
| CC(=O)Nc1c(S(=O)(=O)c2ccccc2)c(C)c(C)n1Cc1ccccc1 | > 100 | > 100 | > 100 | > 100 | > 100 | > 100 | > 100 | > 100 | > 100 | > 100 |  |  |  |  |  |  |  |  |
| Clc1ccc(-c2cn3c(nc4ccccc43)c(/C=C/c3ccco3)n2)cc1 | > 100 | > 100 | > 100 | > 100 | > 100 |  | 96.3 | > 100 |  | > 100 |  |  |  |  |  |  |  |  |
| Cc1c(N=Nc2ccccc2)c(C)n(C2OC(CO)C(O)C(O)C2O)c(=S)c1C#N (configuration not stated) | 18.9 | > 100 | 87.2 | 65.8 | > 100 | 70 | 72.5 | > 100 |  | > 100 |  |  |  |  |  |  |  |  |
| CC(=O)Nc1ccc2[nH]c(C(=O)N3CC(CCl)c4c3cc([N+](=O)[O-])c3ccccc43)cc2c1 (configuration not stated) | > 31.6 | > 100 | > 100 | > 100 | > 71.7 | > 67.6 | 4.06 | > 100 | 6.61 | > 53 |  |  |  |  |  |  |  |  |
| CC(C)(C)c1cc(OCc2nn3c(Cc4ccccc4)nnc3s2)c(Cl)cc1OCc1nn2c(Cc3ccccc3)nnc2s1 | > 100 | > 100 | > 100 | > 100 | > 100 | > 100 | > 100 | > 100 | > 100 | > 100 |  |  |  |  |  |  |  |  |
| COC(=O)N[C@H](C(=O)O)C(C)O[Si](C)(C)C(C)(C)C (some centres not stated) | > 100 | > 100 | > 100 |  | > 100 | > 100 | > 100 | > 100 | > 100 | > 100 |  |  |  |  |  |  |  |  |
| CC(=O)Oc1c(-c2ccccc2)sc2ccccc12 | 63.2 | > 100 | 39.8 |  | 52.3 | 40.7 | 34.5 | 33.4 | 51.3 | 30.7 |  |  |  |  |  |  |  |  |
| O=C(CSc1nc(-c2ccccc2)c(-c2ccccc2)[nH]1)N/N=C/c1ccc(O)cc1 | 54.9 | > 100 | 49 | 40.6 | 55.4 | 70.1 |  |  | 48.6 | 95.7 |  |  |  |  |  |  |  |  |
| OCCN(/N=C\c1ccc2ccccc2c1)C1=NCCN1 | 48.6 | 55.6 | 73.8 | 35 | > 100 | 44.5 |  | 33.4 |  | > 100 |  |  |  |  |  |  |  |  |
| COc1ccc([C@@H]2CC(=O)N2)cc1 | > 100 |  | > 100 | > 100 | > 100 | > 100 | > 100 |  | > 100 | > 100 |  |  |  |  |  |  |  |  |
| Nc1nc(Cl)cc(NC2(CO)CCC2)n1 | > 100 | > 100 | > 100 |  | > 100 | > 100 | > 100 | > 100 | > 100 | > 100 |  |  |  |  |  |  |  |  |
| COc1cc(OC)c2c3c(OC)cc(OC)c4c(=O)c(O)c(C[C@@H](C)O)c(c5c(C[C@@H](C)O)c(O)c(=O)c1c25)c43 |  | 35.6 | 67.9 | 47 | 83.2 | 39.4 | 71.8 | 25.3 |  | 49.2 |  |  |  |  |  |  |  |  |
| O=C(c1ccccc1)C1S(=O)(=O)OCCOS1(=O)=O | > 100 | > 100 |  | > 100 | > 100 |  |  |  | > 100 | > 100 |  |  |  |  |  |  |  |  |
| Cc1cc2c(C)n(Cc3ccccc3Cl)nc2c(C(=O)O)c1C | > 100 | > 100 | > 100 |  |  | > 100 |  |  |  | > 100 |  |  |  |  |  |  |  |  |
| Cc1n[nH]c(=O)n1/N=C\c1ccccc1 | > 100 | > 100 | > 100 |  | > 100 | > 100 | > 100 | > 100 | > 100 | > 100 |  |  |  |  |  |  |  |  |
| C/C=C1\CN(C(=O)OC(C)(C)C)C1C(=O)OC(C)(C)C (configuration not stated) | > 100 | > 100 |  | > 100 |  | > 100 | > 100 |  |  | > 100 |  |  |  |  |  |  |  |  |
| CCOC(=O)Nc1ccc2c(c1)c(CCCCCCc1nc3ccccc3c3ccc(NC(=O)OCC)cc13)nc1ccccc12 | > 100 | > 100 |  | 88.8 | > 100 | > 100 | 67.3 | 67.8 | 60.5 | > 100 |  |  |  |  |  |  |  |  |
| Cc1cc(=O)n2nc(CCl)sc2n1 | 46.9 | 37.5 | 20.3 | 23.4 | 27.4 | 36.3 |  | 37.5 | 20 | 37 |  |  |  |  |  |  |  |  |
| CCN(CC)CCN1C(=O)c2c(c3c4ccccc4[nH]c3c3ccc4ccccc4c23)C1=O | 2.97 | 2.97 | 3.06 |  | 3.22 | 2.9 | 2.61 |  | 3.54 | 2.83 | 1.57 | 1.31 | 1.53 | 1.74 | 0.666 | 1.32 | 1.46 | 1.43 |
| c1csc(-c2ccsc2-c2cccs2)c1 | > 100 | > 100 | > 100 | > 100 | > 100 | 71.1 | > 100 |  | > 100 | > 100 |  |  |  |  |  |  |  |  |
| O=C1N2Cc3c4ccc5c3CN3C(=O)N6Cc7c(ccc(c7CN1C6(c1ccccc1)C23c1ccccc1)OCCOCCNCCOCCO4)OCCOCCNCCOCCO5 (configuration not stated) | > 100 | 50.8 | > 100 | 57.8 | > 100 | > 100 | > 100 |  | > 100 | > 100 |  |  |  |  |  |  |  |  |
| CC(=O)NC(C)(C)C1CCC(C)=C(c2ccccc2)C1 (configuration not stated) | > 100 | > 100 | > 100 | > 100 | > 100 | > 100 |  | > 100 | > 100 | > 100 |  |  |  |  |  |  |  |  |
| O=C(/C=C(\S/C=C(/c1ccccc1)N1CCn2c(C(=O)c3ccccc3)c(C(=O)c3ccccc3)c(C(=O)c3ccccc3)c21)C(=O)c1ccccc1)c1ccccc1 | > 10 | > 10 | > 10 | > 10 | > 10 | > 10 |  | > 10 | > 10 | > 10 |  |  |  |  |  |  |  |  |
